Like-named read-outs stand apart in the source and are kept apart here.
What was measured:
Mer kinase = biological target: T1, Mer kinase (Homo sapiens, UniProt Q12866); test: Mer kinase inhibition assay (TK-Sub-Biotin / cryptate detection); type: biochemical; conditions: for IC50: means from three independent experiments
T1 construct: purchased Invitrogen (Shanghai, China)
T1 sequence (Q12866 21-999): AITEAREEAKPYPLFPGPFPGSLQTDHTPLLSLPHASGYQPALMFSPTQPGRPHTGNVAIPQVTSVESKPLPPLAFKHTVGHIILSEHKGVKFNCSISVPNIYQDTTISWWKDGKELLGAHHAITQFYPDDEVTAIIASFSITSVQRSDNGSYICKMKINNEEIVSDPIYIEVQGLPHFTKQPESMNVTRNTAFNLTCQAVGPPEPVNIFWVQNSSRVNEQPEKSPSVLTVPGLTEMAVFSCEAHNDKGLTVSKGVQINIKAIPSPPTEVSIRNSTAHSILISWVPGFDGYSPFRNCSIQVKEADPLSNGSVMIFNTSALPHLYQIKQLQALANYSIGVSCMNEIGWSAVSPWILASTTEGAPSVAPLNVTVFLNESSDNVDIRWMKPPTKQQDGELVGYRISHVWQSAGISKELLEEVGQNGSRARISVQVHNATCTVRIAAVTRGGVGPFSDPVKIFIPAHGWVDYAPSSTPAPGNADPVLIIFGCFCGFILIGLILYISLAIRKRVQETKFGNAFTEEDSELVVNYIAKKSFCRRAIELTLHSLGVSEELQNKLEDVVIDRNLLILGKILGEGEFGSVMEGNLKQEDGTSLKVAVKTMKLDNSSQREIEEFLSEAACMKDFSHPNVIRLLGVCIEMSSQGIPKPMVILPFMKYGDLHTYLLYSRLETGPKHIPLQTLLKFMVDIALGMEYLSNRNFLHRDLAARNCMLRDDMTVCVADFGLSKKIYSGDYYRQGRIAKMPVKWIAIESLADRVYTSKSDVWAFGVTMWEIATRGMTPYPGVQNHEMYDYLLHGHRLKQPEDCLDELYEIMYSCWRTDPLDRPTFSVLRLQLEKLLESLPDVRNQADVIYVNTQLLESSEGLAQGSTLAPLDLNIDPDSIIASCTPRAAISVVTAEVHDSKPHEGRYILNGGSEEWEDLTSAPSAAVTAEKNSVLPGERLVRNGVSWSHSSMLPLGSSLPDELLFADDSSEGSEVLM

c-Met kinase = biological target: T2, c-Met kinase (Homo sapiens, UniProt P08581); test: c-Met kinase inhibition assay (TK-Sub-Biotin / cryptate detection); type: biochemical; conditions: for IC50: means from three independent experiments
T2 construct: purchased Invitrogen (Shanghai, China)

[1] = Liver microsome stability assay; type: in vitro ADME, human; conditions: human, liver microsomes, pH 7.4, human liver microsomes; for microsomal CLint: read-out: CL (intrinsic clearance)
[2] = cited from earlier work
[3] = cited from earlier work; remark: listed apart in the source
HepG2 = test: Antiproliferation CCK-8 assay, HepG2; type: cell-based; conditions: Homo sapiens, CCK-8, 72 h
Experimental: (§1) The HepG2, MDA-MB-231, and HCT116 cell lines were derived from our own laboratory (the laboratory of our collaborator, Dr. Xiaolei Zhou, at College of Food Science and Biology in Hebei University of Science and Technology). The antiproliferative activities were assessed using the CCK-8 assay. Cell viability was measured according to the manufacturer’s instructions for the Cell Counting Kit-8 (Meilunbio, Dalian, China). In this assay, 2.5 × 10^3 cells per well were seeded into 96-well plates.
(§2) After an initial 12 h incubation, cancer cells were exposed to varying concentrations of compound 17c for 72 h. Following CCK-8 solution addition and 2 h incubation, the absorbance at 450 nm was measured using a BioTek Synergy HTX microplate reader. Experiments included triplicate wells with three independent replicates. The IC50 values for compound 17c were derived from an analysis of the dose–response curves in GraphPad PRISM 9.5.

MDA-MB-231 = test: Antiproliferation CCK-8 assay, MDA-MB-231; type: cell-based; conditions: Homo sapiens, CCK-8, 72 h
Experimental: as §1, §2

HCT116 = test: Antiproliferation CCK-8 assay, HCT116; type: cell-based; conditions: Homo sapiens, HCT-116; CCK-8, 72 h; read-out: IC50 HCT116
Experimental: as §1, §2

[4] = Plasma protein binding, equilibrium dialysis, rat plasma; type: in vitro ADME; conditions: 1 μM

T2 sequence (P08581 25-1390): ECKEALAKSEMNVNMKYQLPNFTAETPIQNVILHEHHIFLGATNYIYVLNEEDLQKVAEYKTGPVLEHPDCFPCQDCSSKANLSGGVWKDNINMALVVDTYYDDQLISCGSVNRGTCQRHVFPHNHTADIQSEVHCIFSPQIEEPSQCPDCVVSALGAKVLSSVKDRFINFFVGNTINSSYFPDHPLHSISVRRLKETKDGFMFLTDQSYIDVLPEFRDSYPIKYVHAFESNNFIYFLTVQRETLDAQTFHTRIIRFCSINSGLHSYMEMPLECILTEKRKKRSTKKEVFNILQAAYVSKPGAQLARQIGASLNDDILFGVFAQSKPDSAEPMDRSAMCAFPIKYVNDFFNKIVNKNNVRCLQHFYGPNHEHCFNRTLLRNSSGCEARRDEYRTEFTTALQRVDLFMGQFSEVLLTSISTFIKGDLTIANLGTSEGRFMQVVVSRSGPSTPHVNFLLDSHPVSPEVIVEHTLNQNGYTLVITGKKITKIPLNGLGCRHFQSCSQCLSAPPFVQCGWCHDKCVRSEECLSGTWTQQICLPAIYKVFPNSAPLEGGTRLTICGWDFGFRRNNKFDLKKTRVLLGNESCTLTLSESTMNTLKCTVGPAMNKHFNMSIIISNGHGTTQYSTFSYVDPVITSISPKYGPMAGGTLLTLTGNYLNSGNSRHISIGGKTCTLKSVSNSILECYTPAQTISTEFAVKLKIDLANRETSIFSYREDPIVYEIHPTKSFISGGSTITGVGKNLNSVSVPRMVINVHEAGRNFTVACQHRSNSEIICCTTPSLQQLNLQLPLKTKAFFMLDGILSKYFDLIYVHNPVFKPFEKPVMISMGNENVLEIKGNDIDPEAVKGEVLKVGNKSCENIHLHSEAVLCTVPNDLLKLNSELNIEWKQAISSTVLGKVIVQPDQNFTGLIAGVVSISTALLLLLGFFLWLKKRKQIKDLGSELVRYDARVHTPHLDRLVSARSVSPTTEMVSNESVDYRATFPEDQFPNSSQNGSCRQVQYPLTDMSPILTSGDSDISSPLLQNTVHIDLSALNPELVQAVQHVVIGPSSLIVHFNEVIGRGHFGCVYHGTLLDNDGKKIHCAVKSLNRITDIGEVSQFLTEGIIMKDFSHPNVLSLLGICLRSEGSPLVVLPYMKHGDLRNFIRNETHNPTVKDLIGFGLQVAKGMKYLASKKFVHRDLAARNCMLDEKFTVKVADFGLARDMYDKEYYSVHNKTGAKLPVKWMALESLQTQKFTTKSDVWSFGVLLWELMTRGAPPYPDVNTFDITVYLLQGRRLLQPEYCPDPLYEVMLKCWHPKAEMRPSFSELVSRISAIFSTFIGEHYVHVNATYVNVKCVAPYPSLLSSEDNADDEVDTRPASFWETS

| Structure (SMILES) | IC50 (Mer kinase) [nM] | IC50 (c-Met kinase) [nM] | further results |
| --- | --- | --- | --- |
| CC(=O)N1CCN(c2ccc(Nc3nccc(Oc4ccc(NC(=O)c5c(C)n(C)n(-c6ccccc6)c5=O)cc4)n3)cc2)CC1 [compound 17e, N-(4-((2-((4-(4-acetylpiperazin-1-yl)phenyl)amino)pyrimidin-4-yl)oxy)phenyl)-1,5-dimethyl-3-oxo-2-phenyl-2,3-dihydro-1H-pyrazole-4-carboxamide] | 69.8 ± 12.5 | 236 ± 25.6 | – |
| CN(C)CCNCC(=O)Nc1ccc(Nc2nccc(Oc3ccc(NC(=O)C4(C(=O)Nc5ccc(F)cc5)CC4)cc3)n2)cc1 [compound 13j] | 13.1 ± 2.1 | 48.6 ± 11.2 | half-life [1]: 27.9 min; microsomal CLint [1]: 152 µL/min/mg |
| CN1CCC(Oc2ccc(Nc3nccc(Oc4ccc(NC(=O)C5(C(=O)Nc6ccc(F)cc6)CC5)cc4)n3)cc2)CC1 [compound 13a, N-(4-fluorophenyl)-N-(4-((2-((4-((1-methylpiperidin-4-yl)oxy)phenyl)amino)pyrimidin-4-yl)oxy)phenyl)cyclopropane-1,1-dicarboxamide] | 21.7 ± 5.8 | 63.3 ± 9.1 | – |
| Cc1c(C(=O)Nc2ccc(Oc3ccnc(Nc4ccc(NC(=O)CN5CCN(C)CC5)nc4)n3)cc2)c(=O)n(-c2ccccc2)n1C [compound 17g, 1,5-dimethyl-N-(4-((2-((6-(2-(4-methylpiperazin-1-yl)acetamido)pyridin-3-yl)amino)pyrimidin-4-yl)oxy)phenyl)-3-oxo-2-phenyl-2,3-dihydro-1H-pyrazole-4-carboxamide] | > 1000 | 140 ± 18.9 | – |
| COCCNc1cccc(Nc2nccc(Oc3ccc(NC(=O)C4(C(=O)Nc5ccc(F)cc5)CC4)cc3)n2)c1 [compound 13b] | 24.3 ± 5.7 | 25.9 ± 7.7 | half-life [1]: 38.3 min; microsomal CLint [1]: 90.5 µL/min/mg |
| Cc1c(C(=O)Nc2ccc(Oc3ccnc(Nc4ccc(OC5CCN(C)CC5)cc4)n3)cc2)c(=O)n(-c2ccccc2)n1C [compound 17a, 1,5-dimethyl-N-(4-((2-((4-((1-methylpiperidin-4-yl)oxy)phenyl)amino)pyrimidin-4-yl)oxy)phenyl)-3-oxo-2-phenyl-2,3-dihydro-1H-pyrazole-4-carboxamide] | 26.2 ± 7.1 | 233 ± 25.4 | – |
| CC(=O)N1CCN(c2cccc(Nc3nccc(Oc4ccc(NC(=O)C5(C(=O)Nc6ccc(F)cc6)CC5)cc4)n3)c2)CC1 [compound 13e] | 7.5 ± 1.6 | 7.5 ± 1.1 | fold improvement over 18c, Mer IC50 (Mer kinase): 2.5 fold; fold improvement over 18c, c-Met IC50 (c-Met kinase): 4.5 fold; half-life [1]: 30.4 min; microsomal CLint [1]: 114 µL/min/mg |
| CN1CCN(CC(=O)Nc2ccc(Nc3nccc(Oc4ccc(NC(=O)C5(C(=O)Nc6ccc(F)cc6)CC5)cc4)n3)cc2)CC1 [compound 18c] | – | – | oral bioavailability F ([2]; previous study): 2.84% |
| CCCCNc1ncc2c(-c3ccc(F)cc3)nn(CC3CCC(N)CC3)c2n1 (centres unmarked) [UNC569] | – | – | human microsomal t1/2 [3]: < 15 min; oral bioavailability F [2]: < 10% |
| CCN(CC)CCNCC(=O)Nc1ccc(Nc2nccc(Oc3ccc(NC(=O)C4(C(=O)Nc5ccc(F)cc5)CC4)cc3)n2)cc1 [compound 13i, N-(4-((2-((4-(2-((2-(diethylamino)ethyl)amino)acetamido)phenyl)amino)pyrimidin-4-yl)oxy)phenyl)-N-(4-fluorophenyl)cyclopropane-1,1-dicarboxamide] | 95.3 ± 20.1 | 88.6 ± 13.9 | – |
| O=C(Nc1ccc(F)cc1)C1(C(=O)Nc2ccc(Oc3ccnc(Nc4cc(F)cc(F)c4)n3)cc2)CC1 [compound 13d, N-(4-((2-((3,5-difluorophenyl)amino)pyrimidin-4-yl)oxy)phenyl)-N-(4-fluorophenyl)cyclopropane-1,1-dicarboxamide] | 640 ± 82.2 | 728 ± 131 | – |
| COCCNc1cccc(Nc2nccc(Oc3ccc(NC(=O)c4c(C)n(C)n(-c5ccccc5)c4=O)cc3)n2)c1 [compound 17b, N-(4-((2-((3-((2-methoxyethyl)amino)phenyl)amino)pyrimidin-4-yl)oxy)phenyl)-1,5-dimethyl-3-oxo-2-phenyl-2,3-dihydro-1H-pyrazole-4-carboxamide] | 12.1 ± 1.3 | 101 ± 18.5 | – |
| COc1cc2nccc(Oc3ccc(NC(=O)C4(C(=O)Nc5ccc(F)cc5)CC4)cc3)c2cc1OC [cabozantinib, reference compound] | – | – | IC50 (HepG2): 7.87 ± 2.11 µM; IC50 (MDA-MB-231): 4.62 ± 0.54 µM; IC50 (HCT116): 15.6 ± 4.39 µM |
| Cc1c(C(=O)Nc2ccc(Oc3ccnc(Nc4ccc(C(=O)N5CCN(C)CC5)cc4)n3)cc2)c(=O)n(-c2ccccc2)n1C [compound 17d, 1,5-dimethyl-N-(4-((2-((4-(4-methylpiperazine-1-carbonyl)phenyl)amino)pyrimidin-4-yl)oxy)phenyl)-3-oxo-2-phenyl-2,3-dihydro-1H-pyrazole-4-carboxamide] | 84.1 ± 13.9 | 137 ± 34.3 | – |
| O=C(NC1CCCNC1)c1ccc(Nc2nccc(Oc3ccc(NC(=O)C4(C(=O)Nc5ccc(F)cc5)CC4)cc3)n2)cc1 (centres unmarked) [compound 13g, N-(4-fluorophenyl)-N-(4-((2-((4-(piperidin-3-ylcarbamoyl)phenyl)amino)pyrimidin-4-yl)oxy)phenyl)cyclopropane-1,1-dicarboxamide] | > 1000 | > 1000 | – |
| CN1CCN(Cc2ccc(-c3cn([C@H]4CC[C@H](O)CC4)c4nc(NCCC5CC5)ncc34)cc2)CC1 [MRX2843] | – | – | brain/plasma ration ([2]; CNS penetration): 0.4 |
| CC(=O)CC(c1ccccc1)c1c(O)c2ccccc2oc1=O (centres unmarked) [Warfarin, reference compound] | – | – | Mean Fb [4]: 99.0% |
| O=C(NC1CCCNC1)c1cccc(Nc2nccc(Oc3ccc(NC(=O)C4(C(=O)Nc5ccc(F)cc5)CC4)cc3)n2)c1 (centres unmarked) [compound 13f, N-(4-fluorophenyl)-N-(4-((2-((3-(piperidin-3-ylcarbamoyl)phenyl)amino)pyrimidin-4-yl)oxy)phenyl)cyclopropane-1,1-dicarboxamide] | > 1000 | > 1000 | – |
| CC(=O)N1CCN(c2cccc(Nc3nccc(Oc4ccc(NC(=O)c5c(C)n(C)n(-c6ccccc6)c5=O)cc4)n3)c2)CC1 [compound 17f, N-(4-((2-((3-(4-acetylpiperazin-1-yl)phenyl)amino)pyrimidin-4-yl)oxy)phenyl)-1,5-dimethyl-3-oxo-2-phenyl-2,3-dihydro-1H-pyrazole-4-carboxamide] | 5.5 ± 0.8 | 25 ± 3.5 | half-life [1]: 51 min; microsomal CLint [1]: 68 µL/min/mg |
| CN1CCN(C(=O)c2ccc(Nc3nccc(Oc4ccc(NC(=O)C5(C(=O)Nc6ccc(F)cc6)CC5)cc4)n3)cc2)CC1 [compound 13h, N-(4-fluorophenyl)-N-(4-((2-((4-(4-methylpiperazine-1-carbonyl)phenyl)amino)pyrimidin-4-yl)oxy)phenyl)cyclopropane-1,1-dicarboxamide] | 72 ± 8.9 | 41.6 ± 8.5 | – |
| Cc1c(C(=O)Nc2ccc(Oc3ccnc(Nc4ccc(NC(=O)C(C)N5CCN(C)CC5)cc4)n3)cc2)c(=O)n(-c2ccccc2)n1C (centres unmarked) [compound 17h, 1,5-dimethyl-N-(4-((2-((4-(2-(4-methylpiperazin-1-yl)propanamido)phenyl)amino)pyrimidin-4-yl)oxy)phenyl)-3-oxo-2-phenyl-2,3-dihydro-1H-pyrazole-4-carboxamide] | 11.9 ± 1.7 | 45 ± 6.8 | – |
| COCCN1CCN(CC(=O)Nc2ccc(Nc3nccc(Oc4ccc(NC(=O)C5(C(=O)Nc6ccc(F)cc6)CC5)cc4)n3)cc2)CC1 [compound 13k] | 37.3 ± 10.6 | 35.4 ± 10 | half-life [1]: 38.4 min; microsomal CLint [1]: 124 µL/min/mg |
| O=C(Nc1ccc(F)cc1)C1(C(=O)Nc2ccc(Oc3ccnc(Nc4cn[nH]c4)n3)cc2)CC1 [compound 13c, N-(4-((2-((1H-pyrazol-4-yl)amino)pyrimidin-4-yl)oxy)phenyl)-N-(4-fluorophenyl)cyclopropane-1,1-dicarboxamide] | 110 ± 15.7 | 48.9 ± 6.4 | – |

Source: PMC12385147, “Discovery of Novel 2-Substituted Aniline Pyrimidine Based Derivatives as Potent Mer/c-Met Dual Inhibitors with Improvement Bioavailability” (Biomolecules, 2025)
